Laboratory results published in patent US9499585B2, “Bioactive peptide complexes” (priority 2012, dated 2016).
No end group written: not given here.

How the values were obtained:
[1] = system: A/Aichi/2/68 (H3N2) flu strain; format: in vivo, white mice
Type I interferons = Type I interferons induction; conditions: FIG. 6
Excerpt: Type I interferons induction was studied by the previously published method [F. I. Yershov., O. I. Kiselev. Interferons and their inducers (from the molecule to the drug) M.: Publ. House. Geotar—Media, 2005-P. 356, Chernysh et al. 2002].

[2] = Zn^++ ion binding with A1 peptide by light-scattering method; format: physicochemical; conditions: Zn(NO3)2; light scattering at 400 nm; aggregates dissolve on adding EDTA
Excerpt: Zn^++ ion binding with alloferon 1 (A1) and its homologs was studied by the method described [Shi Y., Beger R. D., Berg J. M. Metal binding properties of single amino acid deletion mutants of zinc finger peptides: studies using cobalt(II) as a spectroscopic prob. Biophys. J., 1993, Vol. 64, p. 749-753]. Zn^++ ion binding with A1 peptide was studied by the light-scattering method using ISS, Campaign, IL fluorimeter at 400 nm and excitation light 398 nm.
For analysis conditions refer to Shi Y. et al. (1993)
A—(open circles) A1 and Zn(N03)2. interaction Excess molar quantity of Zn^++ ion comparing to peptide was 1:10. Firm line—peptide enrichment with Zn^+ ion. Ground peptide mass changed into aggregates with complete enrichment. EDTA was added to aggregates. Subsequent to addition of EDTA the complex quickly dissociated and peptide (alloferon) changed to soluble phase.

| Molecule | protective effect ([1]; […], mice observed 15 days) | interferon induction activity (Type I interferons) | diameter of polydisperse nanoparticles formed on peptide aggregation with Zn^++ [2] | protective effect (in words) ([1]; mouse, in vivo) |
| --- | --- | --- | --- | --- |
| CC(N)C12CC3CC(CC(C3)C1)C2 (stereo not shown) [Remantadin] | 80-87% | – | – | – |
| HGVSGHGQHGVHG [Alloferon A1, nonmodified base peptide] | – | quite high level of interferon induction ability | 50-60 nm | comparable to efficiency of the protective effect of reference drug Remantadin |
